Measured values published in ChEMBL document CHEMBL5154747, “Discovery of new carbonic anhydrase IX inhibitors as anticancer agents by toning the hydrophobic and hydrophilic rims of the active site to encounter the dual-tail approach” (Eur J Med Chem, 2022).

How the values were obtained:
Type in all cases: functional
Conditions in all cases: read-out: GI
OVCAR-4 = experiment: Anticancer activity against human OVCAR-4 cells assessed as cell growth inhibition at 10 uM incubated for 48 hrs by SRB assay relative to control
SK-MEL-28 = experiment: Anticancer activity against human SK-MEL-28 cells assessed as cell growth inhibition at 10 uM incubated for 48 hrs by SRB assay relative to control
TK-10 = experiment: Anticancer activity against human TK-10 cells assessed as cell growth inhibition at 10 uM incubated for 48 hrs by SRB assay relative to control
OVCAR-8 = experiment: Anticancer activity against human OVCAR-8 cells assessed as cell growth inhibition at 10 uM incubated for 48 hrs by SRB assay relative to control
K562 = experiment: Anticancer activity against human K562 cells assessed as cell growth inhibition at 10 uM incubated for 48 hrs by SRB assay relative to control
SNB-19 = experiment: Anticancer activity against human SNB-19 cells assessed as cell growth inhibition at 10 uM incubated for 48 hrs by SRB assay relative to control
COLO 205 = experiment: Anticancer activity against human COLO 205 cells assessed as cell growth inhibition at 10 uM incubated for 48 hrs by SRB assay relative to control
U-251 = experiment: Anticancer activity against human U-251 cells assessed as cell growth inhibition at 10 uM incubated for 48 hrs by SRB assay relative to control
BT-549 = experiment: Anticancer activity against human BT-549 cells assessed as cell growth inhibition at 10 uM incubated for 48 hrs by SRB assay relative to control
EKVX = experiment: Anticancer activity against human EKVX cells assessed as cell growth inhibition at 10 uM incubated for 48 hrs by SRB assay relative to control
OVCAR-5 = experiment: Anticancer activity against human OVCAR-5 cells assessed as cell growth inhibition at 10 uM incubated for 48 hrs by SRB assay relative to control
DU-145 = experiment: Anticancer activity against human DU-145 cells assessed as cell growth inhibition at 10 uM incubated for 48 hrs by SRB assay relative to control
NCI-H322M = experiment: Anticancer activity against human NCI-H322M cells assessed as cell growth inhibition at 10 uM incubated for 48 hrs by SRB assay relative to control
HL-60(TB) = experiment: Anticancer activity against human HL-60(TB) cells assessed as cell growth inhibition at 10 uM incubated for 48 hrs by SRB assay relative to control
HOP-62 = experiment: Anticancer activity against human HOP-62 cells assessed as cell growth inhibition at 10 uM incubated for 48 hrs by SRB assay relative to control
SF-295 = experiment: Anticancer activity against human SF-295 cells assessed as cell growth inhibition at 10 uM incubated for 48 hrs by SRB assay relative to control
786-0 = experiment: Anticancer activity against human 786-0 cells assessed as cell growth inhibition at 10 uM incubated for 48 hrs by SRB assay relative to control
RXF 393 = experiment: Anticancer activity against human RXF 393 cells assessed as cell growth inhibition at 10 uM incubated for 48 hrs by SRB assay relative to control
MOLT-4 = experiment: Anticancer activity against human MOLT-4 cells assessed as cell growth inhibition at 10 uM incubated for 48 hrs by SRB assay relative to control
UACC-62 = experiment: Anticancer activity against human UACC-62 cells assessed as cell growth inhibition at 10 uM incubated for 48 hrs by SRB assay relative to control

Structure (SMILES) | inhibition of growth at 10 µM (OVCAR-4) [%] | inhibition of growth at 10 µM (SK-MEL-28) [%] | inhibition of growth at 10 µM (TK-10) [%] | inhibition of growth at 10 µM (OVCAR-8) [%] | inhibition of growth at 10 µM (K562) [%] | inhibition of growth at 10 µM (SNB-19) [%] | inhibition of growth at 10 µM (COLO 205) [%] | inhibition of growth at 10 µM (U-251) [%] | inhibition of growth at 10 µM (BT-549) [%] | inhibition of growth at 10 µM (EKVX) [%] | inhibition of growth at 10 µM (OVCAR-5) [%] | inhibition of growth at 10 µM (DU-145) [%] | inhibition of growth at 10 µM (NCI-H322M) [%] | inhibition of growth at 10 µM (HL-60(TB)) [%] | inhibition of growth at 10 µM (HOP-62) [%] | inhibition of growth at 10 µM (SF-295) [%] | inhibition of growth at 10 µM (786-0) [%] | inhibition of growth at 10 µM (RXF 393) [%] | inhibition of growth at 10 µM (MOLT-4) [%] | inhibition of growth at 10 µM (UACC-62) [%]
NS(=O)(=O)c1ccc(Nc2nc(N/N=C/c3ccc(Cl)cc3)nc(Nc3ccccc3)n2)cc1 | 16 | 24 | < 10 | 32 | 40 | 18 | 26 | 45 | 25 | 23 | 16 | 27 | < 10 | 27 | 16 | 41 | 59 | 111 | 98 | 25
NS(=O)(=O)c1ccc(Nc2nc(N/N=C/c3cccc4ccccc34)nc(Nc3ccccc3)n2)cc1 | 16 | 20 | < 10 | 40 | 41 | < 10 | 18 | 33 | < 10 | 20 | < 10 | 31 | < 10 | 28 | 11 | 29 | 56 | 64 | 84 | 18
